Laboratory results taken from patent US20260184712A1, “Heterocyclic Compounds as ENT Inhibitors and Compounds for Use in the Treatment of Cancers” (iTeos Belgium SA, priority 2022, published 2026).
pIC50: −log10 of the molar value.

These compounds were tested against T1, human ENT1 (Homo sapiens, UniProt Q99808) (assay: ENT1 binding assay (competition with Sahenta-DY647 on JAR cells)). Details: competition with SAHENTA-DY647 binding; IC50 categorized; read-out: Binding Assay IC50.
T1 construct: JAR cells expressing ENT1 were purchased from ATCC; host or cells: JAR cells
T1 sequence (Q99808 1-456): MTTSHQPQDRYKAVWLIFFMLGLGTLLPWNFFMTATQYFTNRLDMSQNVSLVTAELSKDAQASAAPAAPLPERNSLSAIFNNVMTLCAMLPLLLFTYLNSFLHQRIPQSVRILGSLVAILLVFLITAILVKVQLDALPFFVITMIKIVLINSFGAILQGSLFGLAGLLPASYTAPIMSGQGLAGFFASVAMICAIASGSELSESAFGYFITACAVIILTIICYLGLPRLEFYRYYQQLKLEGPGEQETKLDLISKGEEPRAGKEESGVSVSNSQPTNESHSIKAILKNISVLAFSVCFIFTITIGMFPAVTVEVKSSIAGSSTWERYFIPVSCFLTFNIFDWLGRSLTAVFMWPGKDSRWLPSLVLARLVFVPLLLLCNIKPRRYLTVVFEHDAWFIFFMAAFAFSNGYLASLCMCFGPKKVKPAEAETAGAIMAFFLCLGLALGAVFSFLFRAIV
Description: Compounds of the present disclosure were assayed to show ability to bind to human ENT1. The assay is a competition between a compound of interest and Sahenta-DY647, an ENT1 inhibitor that emits fluorescence (Ex=630 nm, Em=670 nm). By measuring the fluorescence at the end of the assay, one can assess the binding potency of the compounds tested. The compounds of the present disclosure were tested and compared to known ENT inhibitors, dilazep and NBMPR:
JAR cells expressing ENT1 were purchased from ATCC® (HTB-144TM). Cells were cultured in RPMI 1640 medium (LONZA®, #BE12-702F/U1) supplemented with 10% FBS (GIBCO®, #10270-106), 10 mM Hepes (LONZA®, #BE17-737E), 1 mM Sodium Pyruvate (LONZA®, #BE13-115E), and 2% Penicillin/Streptomycin (LONZA®, #DE17-603E) at 37° C. and 5% CO2.
The assay was conducted with the following buffer on the day of the assay: HBSS (LONZA®, #LO-527F) supplemented with 10 mM Hepes (LONZA®, #BE17-737E) and 0.1% BSA (Miltenyi®, #130-091-376).
JAR cells were resuspended in the described buffer. The compounds of interest and Sahenta-DY647 were diluted 200× with the described buffer.
A total of 50,000 cells were pre-incubated for 30 min at 4° C. with the compounds of the present disclosure before adding the corresponding amount of Sahenta-DY647 (100 nM) to the minimal concentration at Bmax and incubating for an additional 30 min at 4° C. The total volume of the reaction was 100 μL (50 μL of cells, 25 μL of the compounds of the present disclosure, and 25 μL of Sahenta-DY647) in a U-bottom 96 well plate (Greiner®, #650-180). The plates were washed 2× by centrifugation (4 min, 400 rcf at 4° C.) in the same buffer. Cells were re-suspended in 70 μL of the buffer and 50 μL was transferred to a Black 384 Optiplate (PerkinElmer®, #6007279). Fluorescence (Ex=630 nm, Em=670 nm) was acquired on a Spectramax i3x (Molecular Devices®).
Dose-response data from the compounds were analyzed with Graphpad Prism 9.1.1@software, using nonlinear regression applied to a sigmoidal dose-response model and the following equation:
Y=Bottom+(Top-Bottom)/(1+10^((LogIC50−X)*HillSlope)), with a shared bottom and top between the test reagent and dipyridamole.
Data from multiple experiments were compiled by taking the average pIC50 value for the reagent in question±the standard deviation (s.d.) and expressing it as an average IC50 value in nM.
The inhibitory effect of the test compound was expressed as a percentage of the inhibition of SAHENTA-DY647 binding.

| pIC50 | Structure (SMILES) |
| --- | --- |
| 7.70 to 9.00 | C[C@H]1O[C@@H](n2c(NC3CCCC3)nc3c(OCc4ccc(C(F)(F)F)cc4)ncnc32)[C@H](O)[C@@H]1O [Compound 92] |
| 6.30 to 7.70 | C[C@H]1O[C@@H](n2c(NC3CCCC3)nc3c(OCc4ccc(C(F)(F)F)nc4)ncnc32)[C@H](O)[C@@H]1O [Compound 93] |
| 7.70 to 9.00 | C[C@H]1O[C@@H](n2c(NC3CCCC3)nc3c(OCc4ccc(C(F)F)nc4)ncnc32)[C@H](O)[C@@H]1O [Compound 95] |
| 7.70 to 9.00 | CC(CCO)Nc1nc2c(OCc3ccc(OC(F)(F)F)cc3)ncnc2n1[C@@H]1O[C@H](C)[C@@H](O)[C@H]1O (stereo partly shown) [Compound 99] |
| 6.30 to 7.70 | C[C@H]1O[C@@H](n2c(NC3CCC(O)C3)nc3c(OCc4ccc(Cl)cc4)ncnc32)[C@H](O)[C@@H]1O (stereo partly shown) [Compound 101] |
| 7.70 to 9.00 | C[C@H]1O[C@@H](n2c(NCC3CC(F)(F)C3)nc3c(OCc4ccc(C#N)cc4)ncnc32)[C@H](O)[C@@H]1O [Compound 104] |
| 7.70 to 9.00 | C[C@H]1O[C@@H](n2c(NCC3CCC(F)(F)C3)nc3c(OCc4ccc(C#N)cc4)ncnc32)[C@H](O)[C@@H]1O (stereo partly shown) [Compound 105] |
| 7.70 to 9.00 | C[C@H]1O[C@@H](n2c(NCC3CCC(F)(F)CC3)nc3c(OCc4ccc(C#N)cc4)ncnc32)[C@H](O)[C@@H]1O [Compound 106] |
| 6.30 to 7.70 | C[C@H]1O[C@@H](n2c(N[C@H]3C[C@@](C)(O)C3)nc3c(OCc4ccc(C#N)cc4)ncnc32)[C@H](O)[C@@H]1O [Compound 119] |
| > 9.00 | C[C@H]1O[C@@H](n2c(N[C@H]3C[C@](C)(O)C3)nc3c(OCc4ccc(C#N)cc4)ncnc32)[C@H](O)[C@@H]1O [Compound 120] |
| 7.70 to 9.00 | C[C@H]1O[C@@H](n2c(N[C@H]3CC[C@@](C)(O)CC3)nc3c(OCc4ccc(OC(F)F)cc4)ncnc32)[C@H](O)[C@@H]1O [Compound 122] |
| > 9.00 | C[C@H]1O[C@@H](n2c(N[C@H]3C[C@](C)(O)C3)nc3c(OCc4ccc(OC(F)F)cc4)ncnc32)[C@H](O)[C@@H]1O [Compound 124] |
| 7.70 to 9.00 | C[C@H]1O[C@@H](n2c(N[C@H]3CC[C@](C)(O)CC3)nc3c(OCc4ccc(C(F)(F)F)cc4)ncnc32)[C@H](O)[C@@H]1O [Compound 125] |
| 7.70 to 9.00 | C[C@H]1O[C@@H](n2c(N[C@H]3CC[C@@](C)(O)CC3)nc3c(OCc4ccc(C(F)(F)F)cc4)ncnc32)[C@H](O)[C@@H]1O [Compound 126] |
| 6.30 to 7.70 | C[C@H]1O[C@@H](n2c(N[C@H]3CC[C@](C)(O)CC3)nc3c(OCc4ccc(Cl)cc4)ncnc32)[C@H](O)[C@@H]1O [Compound 127] |
| 7.70 to 9.00 | C[C@H]1O[C@@H](n2c(N[C@H]3CC[C@@](C)(O)CC3)nc3c(OCc4ccc(Cl)cc4)ncnc32)[C@H](O)[C@@H]1O [Compound 128] |
| 7.70 to 9.00 | C[C@H]1O[C@@H](n2c(N[C@H]3CC[C@@](C)(O)CC3)nc3c(OCc4ccc(C#N)cc4)ncnc32)[C@H](O)[C@@H]1O [Compound 131] |
| 7.70 to 9.00 | C[C@H]1O[C@@H](n2c(N[C@H]3CC[C@](C)(O)CC3)nc3c(OCc4ccc(C#N)cc4)ncnc32)[C@H](O)[C@@H]1O [Compound 132] |
| 6.30 to 7.70 | O=[N+]([O-])c1ccc(COc2ncnc3c2nc(NC2CCCC2)n3[C@@H]2O[C@H](COCCO)[C@@H](O)[C@H]2O)cc1 [Compound 135] |
| > 9.00 | C[C@H]1O[C@@H](n2c(N[C@H]3CC[C@@](C)(O)CC3)nc3c(N4CCc5ccc([N+](=O)[O-])cc5C4)ncnc32)[C@H](O)[C@@H]1O [Compound 139] |
| > 9.00 | C[C@H]1O[C@@H](n2c(Nc3cnn(C)c3)nc3c(N4CCc5ccc([N+](=O)[O-])cc5C4)ncnc32)[C@H](O)[C@@H]1O [Compound 142] |
| 7.70 to 9.00 | C[C@H]1O[C@@H](n2c(N[C@H]3CC[C@](C)(O)CC3)nc3c(N4CCc5ccc([N+](=O)[O-])cc5C4)ncnc32)[C@H](O)[C@@H]1O [Compound 144] |
| 7.70 to 9.00 | COCCCNc1nc2c(N3CCc4ccc([N+](=O)[O-])cc4C3)ncnc2n1[C@@H]1O[C@H](C)[C@@H](O)[C@H]1O [Compound 146] |
| 7.70 to 9.00 | C[C@H]1O[C@@H](n2c(NC3CCOCC3)nc3c(N4CCc5ccc([N+](=O)[O-])cc5C4)ncnc32)[C@H](O)[C@@H]1O [Compound 148] |
| 7.70 to 9.00 | CC(C)Nc1nc2c(N3CCc4ccc([N+](=O)[O-])cc4C3)ncnc2n1[C@@H]1O[C@H](C)[C@@H](O)[C@H]1O [Compound 149] |

Second part, the compound before the results:

| Structure (SMILES) | pIC50 |
| --- | --- |
| C[C@H]1O[C@@H](n2c(NC3CCCC3)nc3c(OCc4ccc(Cl)cc4)ncnc32)[C@H](O)[C@@H]1O [Compound 91] | 7.70 to 9.00 |
| C[C@H]1O[C@@H](n2c(NC3CCCC3)nc3c(OCc4ccc(C(F)F)cc4)ncnc32)[C@H](O)[C@@H]1O [Compound 94] | 7.70 to 9.00 |
| CC(CCO)Nc1nc2c(OCc3ccc(C(F)(F)F)cc3)ncnc2n1[C@@H]1O[C@H](C)[C@@H](O)[C@H]1O (stereo partly shown) [Compound 96] | 7.70 to 9.00 |
| CC(CCO)Nc1nc2c(OCc3ccc(Cl)cc3)ncnc2n1[C@@H]1O[C@H](C)[C@@H](O)[C@H]1O (stereo partly shown) [Compound 97] | 7.70 to 9.00 |
| CC(CCO)Nc1nc2c(OCc3ccc(F)cc3)ncnc2n1[C@@H]1O[C@H](C)[C@@H](O)[C@H]1O (stereo partly shown) [Compound 98] | 7.70 to 9.00 |
| C[C@H]1O[C@@H](n2c(NC3CCC(O)C3)nc3c(OCc4ccc(F)cc4)ncnc32)[C@H](O)[C@@H]1O (stereo partly shown) [Compound 102] | 7.70 to 9.00 |
| C[C@H]1O[C@@H](n2c(NCC3COC3)nc3c(OCc4ccc(C#N)cc4)ncnc32)[C@H](O)[C@@H]1O [Compound 107] | 6.30 to 7.70 |
| C[C@H]1O[C@@H](n2c(NCC3CCOCC3)nc3c(OCc4ccc(C#N)cc4)ncnc32)[C@H](O)[C@@H]1O [Compound 109] | 7.70 to 9.00 |
| C[C@H]1O[C@@H](n2c(NCC3CCOC3)nc3c(OCc4ccc(Cl)cc4)ncnc32)[C@H](O)[C@@H]1O (stereo partly shown) [Compound 110] | 6.30 to 7.70 |
| C[C@H]1O[C@@H](n2c(NCC3CCOCC3)nc3c(OCc4ccc(Cl)cc4)ncnc32)[C@H](O)[C@@H]1O [Compound 111] | 6.30 to 7.70 |
| C[C@H]1O[C@@H](n2c(N[C@H]3C[C@@](C)(O)C3)nc3c(OCc4ccc(OC(F)F)cc4)ncnc32)[C@H](O)[C@@H]1O [Compound 123] | 7.70 to 9.00 |
| C[C@H]1O[C@@H](n2c(N[C@H]3CC[C@](C)(O)CC3)nc3c(OCc4ccc(F)cc4)ncnc32)[C@H](O)[C@@H]1O [Compound 129] | 7.70 to 9.00 |
| C[C@H]1O[C@@H](n2c(N[C@H]3CC[C@@](C)(O)CC3)nc3c(OCc4ccc(F)cc4)ncnc32)[C@H](O)[C@@H]1O [Compound 130] | 7.70 to 9.00 |
| C[C@H]1O[C@@H](n2c(NC3CCS(=O)(=O)CC3)nc3c(N4CCc5ccc([N+](=O)[O-])cc5C4)ncnc32)[C@H](O)[C@@H]1O [Compound 136] | > 9.00 |
| C[C@H]1O[C@@H](n2c(NCc3cnn(C)c3)nc3c(N4CCc5ccc([N+](=O)[O-])cc5C4)ncnc32)[C@H](O)[C@@H]1O [Compound 138] | > 9.00 |
| C[C@H]1O[C@@H](n2c(NC3CCC(O)CC3)nc3c(N4CCc5ccc([N+](=O)[O-])cc5C4)ncnc32)[C@H](O)[C@@H]1O (stereo partly shown) [Compound 140] | > 9.00 |
| C[C@H]1O[C@@H](n2c(NCCCS(C)(=O)=O)nc3c(N4CCc5ccc([N+](=O)[O-])cc5C4)ncnc32)[C@H](O)[C@@H]1O [Compound 143] | > 9.00 |
| C[C@H]1O[C@@H](n2c(NCCCO)nc3c(N4CCc5ccc(C#N)cc5C4)ncnc32)[C@H](O)[C@@H]1O [Compound 155] | 7.70 to 9.00 |
